Counter-ions that a name gives are not always drawn. Like-named read-outs stand apart in the source and are kept apart here.
Biological target: T1, LmxCLK1 (Leishmania mexicana, UniProt E9AMP2)
T1 sequence (E9AMP2 1-422): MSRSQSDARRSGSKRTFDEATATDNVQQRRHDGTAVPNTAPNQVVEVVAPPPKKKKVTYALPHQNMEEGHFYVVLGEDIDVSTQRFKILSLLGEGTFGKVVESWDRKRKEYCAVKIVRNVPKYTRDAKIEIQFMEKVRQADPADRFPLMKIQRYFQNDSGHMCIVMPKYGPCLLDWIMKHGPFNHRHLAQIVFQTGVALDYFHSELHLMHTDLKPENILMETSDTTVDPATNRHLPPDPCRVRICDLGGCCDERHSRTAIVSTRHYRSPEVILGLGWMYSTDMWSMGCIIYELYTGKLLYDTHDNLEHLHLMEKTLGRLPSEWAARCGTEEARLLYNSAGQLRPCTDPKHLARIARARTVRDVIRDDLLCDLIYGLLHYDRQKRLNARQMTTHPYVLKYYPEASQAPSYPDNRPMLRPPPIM
Assay: biochemical
Type: binding

[1] = DSF, 10 µM compound, 2 µM LmxCLK1, Run 1, read-out: ΔTm Run 1
[2] = DSF, 10 µM compound, 2 µM LmxCLK1, Run 2, read-out: ΔTm Run 2
[3] = DSF, 10 µM compound, 2 µM LmxCLK1, mean of two runs, read-out: ΔTm Average
[4] = DSF, 10 µM compound, 2 µM LmxCLK1, Run 1
[5] = DSF, 10 µM compound, 2 µM LmxCLK1, Run 2
[6] = DSF, 10 µM compound, 2 µM LmxCLK1, mean of two runs

Structure (SMILES)	ΔTm at 10 µM [1]	ΔTm at 10 µM [2]	ΔTm at 10 µM [3]	ΔTm Run 1 [4]	ΔTm Run 2 [5]	ΔTm Average [6]	further results
Cc1ccc(Nc2nccc(N(C)c3ccc4c(C)n(C)nc4c3)n2)cc1S(N)(=O)=O [Pazopanib]	0.1 °C	-0.4 °C	-0.2 °C	–	–	–	–
[H]/N=C(/N)N/C(=N/[H])NCCc1ccccc1 [Phenformin HCl]	0 °C	-0.4 °C	-0.2 °C	–	–	–	–
Oc1cc(O)cc(/C=C/c2ccc(O)c(O)c2)c1 [Piceatannol]	0 °C	0.1 °C	0.1 °C	–	–	–	–
O=C(NC[C@H](O)CO)c1ccncc1Nc1ccc(I)cc1F [Pimasertib (AS-703026)]	–	–	–	0.2 °C	-0.1 °C	0.0 °C	–
Cc1ccc(C(=O)Nc2ccc(CN3CCN(C)CC3)c(C(F)(F)F)c2)cc1C#Cc1cnc2cccnn12 [Ponatinib (AP24534)]	–	–	–	0.0 °C	-0.1 °C	-0.1 °C	–
O=c1c(O)c(-c2ccc(O)c(O)c2)oc2cc(O)cc(O)c12 [Quercetin]	0.5 °C	0.6 °C	0.5 °C	–	–	–	–
CC(C)(C)c1cc(NC(=O)Nc2ccc(-c3cn4c(n3)sc3cc(OCCN5CCOCC5)ccc34)cc2)no1 [Quizartinib (AC220)]	0.3 °C	0.2 °C	0.3 °C	–	–	–	–
COc1cc(Nc2ncc(F)c(Nc3ccc4c(n3)NC(=O)C(C)(C)O4)n2)cc(OC)c1OC [R406 (free base)]	–	–	–	0.0 °C	0.0 °C	0.0 °C	–
COc1ccc(F)c(F)c1C(=O)c1cnc(NC2CCN(S(C)(=O)=O)CC2)nc1N [R547]	–	–	–	–	–	–	ΔTm Average: -0.2; ΔTm Run 1: 0 °C; ΔTm Run 2: -0.4
Cn1c(Nc2ccc(C(F)(F)F)cc2)nc2cc(Oc3ccnc(-c4ncc(C(F)(F)F)[nH]4)c3)ccc21 [RAF265 (CHIR-265)]	–	–	–	-0.1 °C	-0.3 °C	-0.2 °C	–
O=C(NCc1cccc(O)c1)Nc1nc(-c2ccncc2)cs1 [RKI-1447]	–	–	–	-0.1 °C	-0.1 °C	-0.1 °C	–
CO[C@H]1C[C@@H]2CC[C@@H](C)[C@@](O)(O2)C(=O)C(=O)N2CCCC[C@H]2C(=O)O[C@H]([C@H](C)C[C@@H]2CC[C@@H](O)[C@H](OC)C2)CC(=O)[C@H](C)/C=C(\C)[C@@H](O)[C@@H](OC)C(=O)[C@H](C)C[C@H](C)/C=C/C=C/C=C/1C [Rapamycin (Sirolimus)]	0.3 °C	-0.1 °C	0.1 °C	–	–	–	–
CO[C@H]1C[C@@H]2CC[C@@H](C)[C@@](O)(O2)C(=O)C(=O)N2CCCC[C@H]2C(=O)O[C@H]([C@H](C)C[C@@H]2CC[C@@H](OP(C)(C)=O)[C@H](OC)C2)CC(=O)[C@H](C)/C=C(\C)[C@@H](O)[C@@H](OC)C(=O)[C@H](C)C[C@H](C)/C=C/C=C/C=C/1C [Ridaforolimus (Deforolimus)]	–	–	–	0.0 °C	0.0 °C	0.0 °C	–
COc1cc(OC)c(/C=C/S(=O)(=O)Cc2ccc(OC)c(NCC(=O)O)c2)c(OC)c1 [Rigosertib (ON-01910)]	–	–	–	-0.2 °C	-0.4 °C	-0.3 °C	–
CS(=O)(=O)O.Cn1cc(C2=C(c3cn(CCCSC(=N)N)c4ccccc34)C(=O)NC2=O)c2ccccc21 [Ro 31-8220 Mesylate]	–	–	–	1.1 °C	1.6 °C	1.3 °C	–
N#CC[C@H](C1CCCC1)n1cc(-c2ncnc3[nH]ccc23)cn1 [Ruxolitinib (INCB018424)]	0.9 °C	1.1 °C	1 °C	–	–	–	–
CCn1c(N)c(C(=O)NC)c(=O)c2ccc(C#C[C@@](C)(O)COC)nc21 [SAR131675]	–	–	–	0.0 °C	-0.1 °C	0.0 °C	–
CCn1c(=O)c(-c2cc[nH]n2)cc2c(C)nc(N)nc21 [SAR245409 (XL765)]	–	–	–	0.1 °C	-0.2 °C	0.0 °C	–
Oc1ccc(-c2nc(-c3ccc(F)cc3)c(-c3ccncc3)[nH]2)cc1 [SB202190 (FHPI)]	–	–	–	0.2 °C	0.4 °C	0.3 °C	–
CN(C)CCOc1ccc(-c2nc(-c3ccncc3)c(-c3ccc4c(c3)CC/C4=N\O)[nH]2)cc1 [SB590885]	-0.1 °C	-0.4 °C	-0.2 °C	–	–	–	–
CN1CCC(CNc2ccc3ncc(-c4cccc(OC(F)(F)F)c4)n3n2)CC1 [SGI-1776 free base]	–	–	–	0.7 °C	0.5 °C	0.6 °C	–
Cn1cc(-c2ccc3nnc(Sc4ccc5ncccc5c4)n3n2)cn1 [SGX-523]	-0.1 °C	-0.2 °C	-0.1 °C	–	–	–	–
Oc1ccc(Nc2nc(-c3ccc(Cl)cc3)cs2)cc1 [SKI II]	–	–	–	0.1 °C	0.1 °C	0.1 °C	–

Structure (SMILES)	ΔTm at 10 µM [1]	ΔTm at 10 µM [2]	ΔTm at 10 µM [3]	ΔTm Run 1 [4]	ΔTm Run 2 [5]	ΔTm Average [6]	further results
N#C/C(=C(/N)Sc1ccc(N)cc1)c1ccccc1C(F)(F)F [SL-327]	–	–	–	-0.2 °C	-0.2 °C	-0.2 °C	–
O=C1NC(=O)/C(=C/c2cccc(C(F)(F)F)c2)S1 [SMI-4a]	–	–	–	–	–	–	ΔTm Average: -0.2; ΔTm Run 1: -0.3; ΔTm Run 2: -0.1
CC(C)(C)c1cnc(CSc2cnc(NC(=O)C3CCNCC3)s2)o1 [SNS-032 (BMS-387032)]	–	–	–	0.2 °C	0.0 °C	0.1 °C	–
O=C(Nc1cccc(Cl)c1)Nc1ncc(CCNc2ncnc3ccsc23)s1 [SNS-314 Mesylate]	3.6 °C	8.3 °C	5.9 °C	–	–	–	–
Oc1c2ccccc2c2c3c(cccc13)N=N2 [SP600125]	0.1 °C	-0.3 °C	-0.1 °C	–	–	–	–
COc1c(C)c(C(=O)c2ccc(N)c(C(=O)[O-])c2)n2ccccc12.[Na+] [SSR128129E]	–	–	–	–	–	–	ΔTm Average: -0.1; ΔTm Run 1: -0.1; ΔTm Run 2: -0.1
CN1CCN(CCOc2cc(OC3CCOCC3)c3c(Nc4c(Cl)ccc5c4OCO5)ncnc3c2)CC1 [Saracatinib (AZD0530)]	–	–	–	0.8 °C	0.7 °C	0.7 °C	–
Cn1cnc2c(F)c(Nc3ccc(Br)cc3Cl)c(C(=O)NOCCO)cc21 [Selumetinib (AZD6244)]	0.3 °C	0.3 °C	0.3 °C	–	–	–	–
CNC(=O)c1cc(Oc2ccc(NC(=O)Nc3ccc(Cl)c(C(F)(F)F)c3)cc2)ccn1 [Sorafenib Tosylate]	–	0.2 °C	–	0.3 °C	–	0.3 °C	–
CNC(=O)c1cc(Oc2ccc(NC(=O)Nc3ccc(Cl)c(C(F)(F)F)c3)cc2)ccn1 [Sorafenib]	–	–	–	-0.3 °C	0.2 °C	-0.1 °C	–
CN1CCN(c2nc(C3=C(c4c[nH]c5ccccc45)C(=O)NC3=O)c3ccccc3n2)CC1 [Sotrastaurin]	1.2 °C	0.9 °C	1 °C	–	–	–	–
CCN(CC)CCNC(=O)c1c(C)[nH]c(/C=C2\C(=O)Nc3ccc(F)cc32)c1C [Sunitinib Malate]	0.3 °C	0.2 °C	0.2 °C	–	–	–	–
CC(C)(O)CC(=O)NCCn1ccc2ncnc(Nc3ccc(Oc4cccc(C(F)(F)F)c4)c(Cl)c3)c21 [TAK-285]	-0.5 °C	-0.2 °C	-0.3 °C	–	–	–	–
N#Cc1c(Oc2ccc(F)c(NC(=O)Cc3cccc(C(F)(F)F)c3)c2)ccc2nc(NC(=O)C3CC3)sc12 [TAK-632]	–	–	–	0.2 °C	0.1 °C	0.1 °C	–
CCc1nc(-c2cccc(C)c2)c(-c2ccnc(NC(=O)c3ccccc3)c2)s1 [TAK-715]	0.5 °C	0.8 °C	0.7 °C	–	–	–	–
Cn1c(=O)c(F)c(Nc2ccc(I)cc2F)c2c(=O)n(C[C@@H](O)CO)cnc21 [TAK-733]	0.2 °C	-0.3 °C	-0.1 °C	–	–	–	–
COc1ccc(C(=O)Nc2sc3c(c2C(N)=O)CCCC3)cc1OC [TCS 359]	–	–	–	0.0 °C	0.0 °C	0.0 °C	–
Nc1nc(N)c2nc(-c3cccc(O)c3)c(-c3cccc(O)c3)nc2n1 [TG100-115]	–	–	–	–	–	–	ΔTm Average: 1.5 °C; ΔTm Run 1: 1.7 °C; ΔTm Run 2: 1.3 °C
Nc1nc(N)c2nc(-c3cccc(O)c3)cnc2n1 [TG100713]	–	–	–	–	–	–	ΔTm Average: -0.1; ΔTm Run 1: 0.1 °C; ΔTm Run 2: -0.2
Cc1cnc(Nc2ccc(N3CCN(C)CC3)cc2)nc1Nc1cccc(S(=O)(=O)NC(C)(C)C)c1 [TG101209]	–	–	–	0.2 °C	-0.3 °C	0.0 °C	–
Cc1cnc(Nc2ccc(OCCN3CCCC3)cc2)nc1Nc1cccc(S(=O)(=O)NC(C)(C)C)c1 [TG101348 (SAR302503)]	–	–	–	0.2 °C	0.3 °C	0.3 °C	–
Cc1cc(C(C)Nc2ccccc2)c2nc(N3CCOCC3)cc(=O)n2c1 (stereo not drawn) [TGX-221]	–	–	–	0.5 °C	0.3 °C	0.4 °C	–
Cc1[nH]c(/C=C2\C(=O)Nc3ccccc32)c(C)c1CCC(=O)O [TSU-68 (SU6668)]	–	–	–	0.1 °C	-0.1 °C	0.0 °C	–

From PMC7619385 (ACS infectious diseases, 2025)
